The test system of series [1] is M. abscessus. The series can be described thus: MIC determination, CLSI M24-A. The series is classed as cell-based. Particulars: Mycobacteroides abscessus; for MIC90: range over compounds and species, read-out: MIC90 (concentration which inhibits 90% of strains); for MIC: CLSI M24-A.
The test system of series [2] is M. abscessus. The series can be described thus: Bactericidal activity. It is filed as cell-based.
For the next series, the system named is M. tuberculosis. The series can be described thus: Bactericidal activity. It is filed as cell-based.
The subject of series [3] is azithromycin-, doxycycline, and sulfamethoxazole-resistant M. abscessus. As to the kind of experiment: MIC against drug-resistant strains. It is filed as cell-based. As to conditions: for MIC: Mycobacteroides abscessus, clinically relevant resistant strains, M. abscessus, range over compounds and strains; for activity against resistant strains: azithromycin-, doxycycline, and sulfamethoxazole-resistant M. abscessus.

Another series concerns M. chelonae. The series can be described thus: MIC determination, CLSI M24-A. It is filed as cell-based. Particulars: Mycobacteroides chelonae, range over compounds and species, read-out: MIC90 (concentration which inhibits 90% of strains).
The subject of another series is M. fortuitum. As to the kind of experiment: MIC determination, CLSI M24-A. Particulars: Mycolicibacterium fortuitum, range over compounds and species, read-out: MIC90 (concentration which inhibits 90% of strains). It is filed as cell-based.
The test system of the next series is Mabs #21. The series can be described thus: 28-day mouse model of chronic NTM lung infection, efficacy. It is filed as in vivo, M. abscessus. As to conditions: GM-CSF KO mice; 25 mg/kg once daily over 4 weeks, intratracheal microspray, 5% corn oil/saline emulsion.
For series [4] the following is noted: mouse, in vivo.
A short description of the next series: physchem. Particulars: oil or lipid.
A further series relates to Mabs ATCC19977. It is filed as cell-based. Particulars: isolated at 4×MIC on 7H11-ADC agar.
The next series has as its system proton motive force. The series can be described thus: Membrane potential and electrochemical pH gradient monitoring. The series is classed as cell-based. As to conditions: Mtb intact cells and inverted membrane vesicles; data not shown.

≈ marks a conversion by molar mass, not a printed value.

For the compound `CC12CCCC(C(=O)Nc3nc4cc(Cl)cc(Cl)c4s3)(CCC1)C2` [Example 2, N-(5,7-dichloro-1,3-benzothiazol-2-yl)-5-methylbicyclo[3.3.1]nonane-1-carboxamide], the MIC90 in the series on M. abscessus [1], in the series with M. chelonae and with M. fortuitum was 0.12 to 1 µg/mL (≈ 0.313 to 2.61 µM) each time. The bactericidal effect entry in the series on M. abscessus [2] and with M. tuberculosis was “bactericidal” throughout. The MIC (commonly the smallest concentration in the dilution series that meets the test's criterion for growth inhibition) in series [3] was in the range of 0.03 to 4 µg/mL (≈ 0.0783 to 10.4 µM). Besides, in series [3], the “activity against resistant strains” value is listed as “active”.

In the case of `CC12CCCC(C(=O)Nc3nc4ccc(OC(F)(F)F)cc4s3)(CCC1)C2` [Example 5, 5-methyl-N-[6-(trifluoromethoxy)-1,3-benzothiazol-2-yl]bicyclo[3.3.1]nonane-1-carboxamide], the MIC90 in the series on M. abscessus [1], in the series on M. chelonae and in the series with M. fortuitum was 0.12 to 1 µg/mL (≈ 0.301 to 2.51 µM) in each case. The compound also displayed an MIC in series [3] of 0.03 to 4 µg/mL (≈ 0.0753 to 10 µM). Further, the “activity against resistant strains” value in series [3] is listed as “active”.

As for `CC12CC3CC(C)(C1)CC(C(=O)Nc1nc4ccc(OC(F)(F)F)cc4s1)(C3)C2` [Example 45, 3,5-dimethyl-N-[6-(trifluoromethoxy)-1,3-benzothiazol-2-yl]adamantane-1-carboxamide], the MIC90 with M. abscessus [1], in the series on M. chelonae and in the series with M. fortuitum was 0.12 to 1 µg/mL (≈ 0.283 to 2.36 µM) throughout. In series [3], this compound returned an MIC of 0.03 to 4 µg/mL (≈ 0.0707 to 9.42 µM). For the same compound, in [3], the “activity against resistant strains” value is reported as “active”. The “lung bacterial load (CFU) versus vehicle control” value in the series on Mabs #21 is “statistically significant CFU reduction”. Moreover, the tolerability result in series [4] was “very well tolerated”. Moreover, the solubility (in general, the concentration that dissolves in the medium under given conditions) in “physchem” was no more than 250 mg/mL.

Take `CC1CC(C(=O)Nc2nc3ccc(OC(F)(F)F)cc3s2)CC(C)(C)C1` (centres unmarked) [Example 46, 3,3,5-trimethyl-N-[6-(trifluoromethoxy)-1,3-benzothiazol-2-yl]cyclohexane-1-carboxamide]: in [3], the MIC was 0.03 to 4 µg/mL (≈ 0.0776 to 10.4 µM) and the “activity against resistant strains” value is listed as “active”.

In the case of `CC1CC(C(=O)Nc2nc3ccc(C(F)(F)F)cc3s2)CC(C)(C)C1` (centres unmarked) [Example 79, 3,3,5-trimethyl-N-[6-(trifluoromethyl)-1,3-benzothiazol-2-yl]cyclohexane-1-carboxamide], the “mutations found in spontaneous-resistant mutants” value in the series on Mabs ATCC19977 is on record as “non-synonymous mutations in their mmpL3 gene (L551S, I306S, A309P)”.

`CC1CC(C(=O)Nc2nc3c(F)cc(F)cc3s2)CC(C)(C)C1` (centres unmarked) [Example 80, N-(4,6-difluoro-1,3-benzothiazol-2-yl)-3,3,5-trimethylcyclohexane-1-carboxamide]: in series [3], the MIC is 0.03 to 4 µg/mL (≈ 0.0886 to 11.8 µM) and the “activity against resistant strains” value was “active”. In addition, the “mutations found in spontaneous-resistant mutants” value in the series with Mabs ATCC19977 is recorded as “non-synonymous mutations in their mmpL3 gene (L551S, I306S, A309P)”. The “effect on proton motive force (membrane potential, electrochemical pH gradient)” value with proton motive force is reported as “did not result from the collapse of the proton motive force”.

Compound `COC1CCCC(C(=O)Nc2nc3ccc(Cl)cc3s2)C1` (centres unmarked) [Example 191, N-(6-chloro-1,3-benzothiazol-2-yl)-3-methoxycyclohexane-1-carboxamide] gave an MIC in the series on M. abscessus [1] of 2 to 32 µg/mL (≈ 6.16 to 98.5 µM).

Consider `O=C(Nc1nc2ccc(C(F)(F)F)cc2s1)C1CCC2(CC1)CC2` [Example 192, N-[6-(trifluoromethyl)-1,3-benzothiazol-2-yl]spiro[2.5]octane-6-carboxamide], for which, in the series on M. abscessus [1], the MIC lay within 2 to 32 µg/mL (≈ 5.64 to 90.3 µM).

The values above are taken from US11655225B2, “Antimycobacterial heterocyclic amides” (Crestone, Inc., priority 2018, dated 2023).
